The target of experiment [1] is T1, α1βB glycine receptor (ZF-α1GlyR subunit) (Danio rerio, UniProt O93430+Q6DC22).
T1 sequence (O93430 25-444): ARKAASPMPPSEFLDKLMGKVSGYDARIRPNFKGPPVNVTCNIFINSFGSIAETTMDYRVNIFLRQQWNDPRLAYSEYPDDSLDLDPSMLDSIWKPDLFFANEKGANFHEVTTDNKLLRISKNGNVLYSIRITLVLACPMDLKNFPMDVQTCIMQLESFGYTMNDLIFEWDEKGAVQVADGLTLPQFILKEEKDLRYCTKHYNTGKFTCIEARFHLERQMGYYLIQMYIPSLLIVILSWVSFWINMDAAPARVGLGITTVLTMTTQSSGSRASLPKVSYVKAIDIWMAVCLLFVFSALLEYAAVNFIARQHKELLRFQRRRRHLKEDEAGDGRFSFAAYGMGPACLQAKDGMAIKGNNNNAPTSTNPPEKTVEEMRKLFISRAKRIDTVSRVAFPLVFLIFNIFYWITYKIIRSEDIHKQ
T1 sequence (Q6DC22 23-494): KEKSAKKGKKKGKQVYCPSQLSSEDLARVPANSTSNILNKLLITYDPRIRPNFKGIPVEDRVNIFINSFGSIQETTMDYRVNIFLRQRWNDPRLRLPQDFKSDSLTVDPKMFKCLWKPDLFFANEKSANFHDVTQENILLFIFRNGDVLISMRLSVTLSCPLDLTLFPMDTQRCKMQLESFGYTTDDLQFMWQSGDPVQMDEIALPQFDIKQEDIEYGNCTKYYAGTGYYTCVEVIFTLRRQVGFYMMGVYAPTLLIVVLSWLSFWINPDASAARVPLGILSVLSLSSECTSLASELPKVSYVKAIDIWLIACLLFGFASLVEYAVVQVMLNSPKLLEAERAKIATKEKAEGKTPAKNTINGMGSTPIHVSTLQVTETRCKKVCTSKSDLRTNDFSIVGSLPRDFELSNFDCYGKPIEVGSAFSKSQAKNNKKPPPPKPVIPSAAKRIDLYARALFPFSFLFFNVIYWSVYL
Briefly: cryo-EM structure, […] Å ([…] glycine); EC50 from whole-cell currents in HEK […] T cells (homomeric α[…]). The class given is cell-based. Details: gene glra1; full-length α1GlyR (NP_571477.1) with C-terminal thrombin site and 8xHis tag, 4α:1β heteropentamer; with βBGlyR (glrbb, NP_001003587.1); rat gephyrin E domain co-purified (not resolved). The source says:
The carboxyl oxygens form hydrogen bonds with αS153 (βS173) on Loop E

Experiment [2] concerns the target T1, α1βB glycine receptor (ZF-α1GlyR subunit). Details: gene glra1.
Experiment [3] concerns the target T2, zebrafish glycine receptor βB subunit (ZF-βBGlyR), full length (zebrafish, UniProt Q6DC22 1-494, N-glycans at N54 and N241).
T2 construct: glycine receptor βB subunit, zebrafish, NCBI NP_001003587.1, codon-optimised full-length gene; One copy stands in the αβGlyR heteropentamer (4α:1β); also called βGlyR; GlyRβB; source: Sf9 (ExpiSf9) cells, baculovirus (pFastBacDual, polyhedrin promoter), co-expressed with α1GlyR and Geph-E
T2 sequence (looked up): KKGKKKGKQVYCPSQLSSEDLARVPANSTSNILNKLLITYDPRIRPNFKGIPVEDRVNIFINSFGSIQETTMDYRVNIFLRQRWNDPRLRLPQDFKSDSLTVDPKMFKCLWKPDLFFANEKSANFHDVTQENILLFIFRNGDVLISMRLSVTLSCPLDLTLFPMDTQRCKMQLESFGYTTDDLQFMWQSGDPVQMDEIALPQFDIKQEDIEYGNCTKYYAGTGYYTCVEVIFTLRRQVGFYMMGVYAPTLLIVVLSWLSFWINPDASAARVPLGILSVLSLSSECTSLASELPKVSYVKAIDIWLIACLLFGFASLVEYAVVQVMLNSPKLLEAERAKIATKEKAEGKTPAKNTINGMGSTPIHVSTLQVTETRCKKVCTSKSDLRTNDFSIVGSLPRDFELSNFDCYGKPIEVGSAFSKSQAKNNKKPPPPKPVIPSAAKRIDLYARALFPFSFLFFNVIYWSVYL
Briefly: cryo-EM structure; αβGlyR-Geph-E sample co-expressed in Sf9 and co-purified in DDM, vitrified on graphene-oxide grids with 100 µM strychnine, 1 mM glycine, or 1 mM glycine and 20 µM ivermectin; no fiduciary marker. Particulars: partners not purified.

A word on the EC50: it is the concentration at which the effect is half-maximal. The low end stands for a more potent agent, the high end for a less potent agent. Turning to `NCC(=O)O` [glycine], the response in experiment [1] was half-maximal at 63 ± 13 µM (EC50).

In the case of `O=C1C[C@@H]2OCC=C3CN4CC[C@]56c7ccccc7N1[C@H]5[C@H]2[C@H]3C[C@H]46` [strychnine], in experiment [2], the “cryo-EM structure, 2.97 Å (100 μM strychnine)” value was “Strychnine density is well-defined in αβGlyR-Stry and is essentially in the same orientation across all five subunits”.

B1: zebrafish glycine receptor α1 subunit (ZF-α1GlyR), full length (receptor, UniProt O93430 25-444, looked up)
chain: ARKAASPMPPSEFLDKLMGKVSGYDARIRPNFKGPPVNVTCNIFINSFGSIAETTMDYRVNIFLRQQWNDPRLAYSEYPDDSLDLDPSMLDSIWKPDLFFANEKGANFHEVTTDNKLLRISKNGNVLYSIRITLVLACPMDLKNFPMDVQTCIMQLESFGYTMNDLIFEWDEKGAVQVADGLTLPQFILKEEKDLRYCTKHYNTGKFTCIEARFHLERQMGYYLIQMYIPSLLIVILSWVSFWINMDAAPARVGLGITTVLTMTTQSSGSRASLPKVSYVKAIDIWMAVCLLFVFSALLEYAAVNFIARQHKELLRFQRRRRHLKEDEAGDGRFSFAAYGMGPACLQAKDGMAIKGNNNNAPTSTNPPEKTVEEMRKLFISRAKRIDTVSRVAFPLVFLIFNIFYWITYKIIRSEDIHKQ
modifications: N-glycan at N62
notes: glycine receptor α1 subunit, zebrafish, NCBI NP_571477.1, codon-optimised full-length gene; Four copies stand in the αβGlyR heteropentamer (4α:1β); The full-length gene was expressed; also called αGlyR; GlyRα1; source: Sf9 (ExpiSf9) cells, baculovirus (pFastBacDual, p10 promoter), co-expressed with βBGlyR and Geph-E; not shown: 8x His (after a thrombin site LVPRGS), C-terminal, kept
Turning to B1, the “stoichiometry N” value in experiment [3] was 4 α per β.

The record behind these values is article PMC10011588, “Conformational transitions and allosteric modulation in a heteromeric glycine receptor” (Nature Communications, 2023).
